According to US20070167400A1, “Chitosan oligosaccharides and uses thereof” (priority 2001, published 2007):

Assays:
[1] = system: prostaglandin E2 (PGE2) release by human keratinocytes; assay: PGE2 release by human keratinocytes (ELISA), unstimulated, UVB or PMA stimulated; format: cell-based
Experimental: The objectives of the present study are to evaluate the anti-inflammatory effects of two chitosan oligosaccharides (product […] and product […]) according to the present invention, and, more particularly on prostaglandin E2 (PGE2) and IL-1β release by human keratinocytes under a UVB irradiation. […] Other plates were kept in the dark. […] After thawing and centrifugation of the medium, the content in PGE2 was measured in ELISA with a R&D Systems kit (DE0100), according to the recommended protocol of the supplier. The IL1β content was measured in ELISA with a Immunotech kit (1042), according to the recommended protocol of the supplier. The raw data were transformed and treated by the software PRISM® (Graph Pad Software). The intergroup comparisons were realized by analysis of variance (ANOVA), with the multiple comparison test […].

[2] = system: IL-6 production in mice macrophages C57BL/6; assay: IL-6 production in macrophages (ELISA); format: cell-based, C57BL/6 mice; conditions: non-activated macrophages
Experimental: FIG. 3 is a graphic illustrating the levels of IL-6 production in mice macrophages C57BL/6 treated in vitro with various concentrations of chitosan oligomers and glucosamine (A) with and without the presence of peptidoglycan (B), as measured by an ELISA test (n=3). […] LPS and PEP were added as positive controls. Non-activated macrophages were treated with products A, B and W and the IL-6 production was compared with the effects of glucosamine (product D). LPS and PEP were added as positive controls.

[3] = system: C57BL/6 mice spleen lymphocytes; assay: Stimulation of spleen lymphocytes by supernatants of treated peritoneal macrophages (MTS/PMS); format: cell-based
Experimental: FIG. 1 is a graphic illustrating the levels of stimulation of the C57BL/6 mice spleen lymphocytes incubated in vitro with macrophage supernatants treated with various concentrations of chitosan oligomers and glucosamine in (A) with and without the presence of peptidoglycan (B), as measured by the activity of the mitochondrial dehydrogenase on formazan salts (MTS/PMS) after 72 hrs of incubation (n=3).
The first experiment consisted in verifying if Product W was able to induce an […] effect. With this in mind, various concentrations of Product W (10 to 160 μg/ml) were incubated with peritoneal macrophages during a 24 hour period and the immunostimulating properties of the supernatants were measured on C57BL/6 mice spleen lymphocytes. The metabolic activity of spleen lymphocytes was measured by the level of Formazan salts transformation (mitochondrial dehydrogenase: MTS/PMS). As control, the dimer of glucosamine (product A), the trimer of glucosamine (product B) and a mixture of dimer-trimer in a ratio of 40:60 (mixture AB) was also studied and the results compared with those induced by glucosamine (product D). Positive controls of pro-inflammatory substances were added, such as lipopolysaccharides of E. coli (LPS) and peptidoglycan of S. Aureus (PEP).
In a second experiment, the macrophages were stimulated by peptidoglycan, (that has a stronger activation on the inflammatory response than LPS), and the capacity of products A, B, AB and W to decrease the stimulation of the lymphocytes was evaluated. […] The reduction induced by Product W, though slight, seems stronger than that induced by glucosamine (product D).

[4] = system: IL-1β release by human keratinocytes; assay: IL-1β release by human keratinocytes (ELISA), unstimulated, UVB or PMA stimulated; format: cell-based; conditions: dexamethasone 0.1 μM
Experimental: • Reference 1: (PGE2 induction): Indomethacin (Sigma 17378), tested at 1 μM (final) • Reference 2: (IL1β induction): Dexamethazone (Sigma D1756), tested at 0.1 μM (final) Treatments and Assays
Other plates were kept in the dark.
After thawing and centrifugation of the medium, the content in PGE2 was measured in ELISA with a R&D Systems kit (DE0100), according to the recommended protocol of the supplier. The IL1β content was measured in ELISA with a Immunotech kit (1042), according to the recommended protocol of the supplier.
The raw data were transformed and treated by the software PRISM® (Graph Pad Software). The intergroup comparisons were realized by analysis of variance (ANOVA), with the multiple comparison test DUNNETT.

[5] = system: TNF-α production in C57BL/6 mice macrophages; assay: TNF-α production in macrophages (ELISA); format: cell-based; conditions: macrophages activated by PEP
Experimental: LPS and PEP were added as positive controls. The first cytokine studied was tumor necrosis factor (TNF-α) which is the first cytokine produced and induces the production of the other pro-inflammatory cytokines.

[6] = system: IL-10 production in mice macrophages C57BL/6; assay: IL-10 production in macrophages (ELISA); format: cell-based, C57BL/6 mice
Experimental: LPS and PEP were added as positive controls. We then verified the IL-10 production levels, a very powerful anti-inflammatory cytokine. Peritoneal macrophages are normally good producers of IL-10 since a normal intestinal system requires a high immunological tolerance to operate correctly. Non-activated macrophages were incubated with the various products, as well as LPS and PEP as positive controls, during 24 hours.

[7] = no stimulation, indomethacin 1 μM
[8] = supernatants of non-activated macrophages, 10 to 160 μg/ml, 24 hour

COc1ccc2c(c1)c(CC(=O)O)c(C)n2C(=O)c1ccc(Cl)cc1 [Indomethacin]
effect on PGE2 release induced by PMA (in words) ([1]; PMA stimulation): totally blocked the PGE2 production/release | PGE2 ([1]; PMA stimulation 1 μg/ml, indomethacin 1 μM): 10 pg/mL | PGE2 % (of control) ([1]; PMA stimulation, indomethacin 1 μM): 0% | effect on PGE2 release (in words) ([1]; UVB stimulation): significantly reduced the PGE2 release | PGE2 ([1]; UVB stimulation 250 mJ/cm2, indomethacin 1 μM): 7.3 pg/mL | PGE2 % (of control) ([1]; UVB stimulation, indomethacin 1 μM): 22% | PGE2 [1, 7]: 0.9 pg/mL | PGE2 % (of control) [1, 7]: 8% | effect on basal PGE2 production/release (in words) [1, 7]: apparently totally blocked the production/release of this basal level

N[C@H]1[C@H](O[C@H]2[C@H](O)[C@@H](N)C(O)O[C@@H]2CO)O[C@H](CO)[C@@H](O)[C@@H]1O (stereo partly drawn) [Product A]
effect on IL-6 production (in words), FIG. 3A [2]: slightly decrease | effect on lymphocyte activity (in words), FIG. 1A ([3]; non-activated macrophages, 80 μg/ml): slight increase | effect on lymphocyte activity (in words), FIG. 1A ([3]; non-activated macrophages, 10 μ/ml): slight decrease

N[C@H]1[C@H](O[C@H]2[C@H](O)[C@@H](N)[C@H](O[C@H]3[C@H](O)[C@@H](N)C(O)O[C@@H]3CO)O[C@@H]2CO)O[C@H](CO)[C@@H](O)[C@@H]1O (stereo partly drawn) [Product B]
effect on IL-6 production (in words), FIG. 3A [2]: increase | effect on lymphocyte stimulation induced by PEP (in words), FIG. 1B ([3]; macrophages stimulated by peptidoglycan (PEP)): with the weakest concentration tested was able to decrease this stimulation | effect on lymphocyte activity (in words), FIG. 1A [3, 8]: slight stimulation with the smallest doses only

C[C@@H]1C[C@H]2[C@@H]3CCC4=CC(=O)C=C[C@]4(C)[C@@]3(F)[C@@H](O)C[C@]2(C)[C@@]1(O)C(=O)CO [dexamethasone, Dexamethazone]
IL1β ([4]; PMA stimulation 1 μg/ml): 0.2 pg/mL | IL1β % (of control) ([4]; PMA stimulation): 5% | IL-1β % (of control) ([4]; no stimulation): 8%

N[C@H]1C(O)O[C@H](CO)[C@@H](O)[C@@H]1O (stereo partly drawn) [glucosamine]
effect on IL-6 production (in words), FIG. 3A [2]: did not modify this cytokine | effect on lymphocyte activity (in words), FIG. 1A [3, 8]: slightly increased the lymphocyte activity | effect on TNF-α (in words), FIG. 2B ([5]; 10 μg/ml): increased the level of TNF-α | effect on TNF-α (in words), FIG. 2B ([5]; highest concentration): induced a reduction | effect on IL-10 production (in words), FIG. 4B ([6]; macrophages activated by PEP): no detectable effect | effect on IL-10 production (in words), FIG. 4A ([6]; non-activated macrophages, 24 hours): slightly increased the IL-10 production
